The record followed here is ChEMBL document CHEMBL3745709, “Synthesis of novel ethyl 1-ethyl-6-fluoro-7-(fatty amido)-1,4-dihydro-4-oxoquinoline-3-carboxylate derivatives and their biological evaluation” (Bioorg Med Chem Lett, 2016).

Each structure is given as a SMILES string. In brackets after ≈: the same amount, converted by molar mass.

Data set [1] can be described thus: Antioxidant activity assessed as DPPH free radical scavenging activity. The data set is classed as physicochemical.
Data set [2] has as its system A549. Nature of the data set: Cytotoxicity against human A549 cells assessed as reduction in cell viability by MTT assay. The data set is classed as functional, cell-based. (In general: Formazan colour is commonly taken as a measure of viable cells.)
Data set [3] concerns Pseudomonas aeruginosa. Nature of the data set: Antibacterial activity against Pseudomonas aeruginosa MTCC 2453 assessed as inhibition zone after 24 hrs at 30 degC by well diffusion method. The data set is classed as functional. Conditions: MTCC 2453, 24 h.
For data set [4], the system named is A549. Nature of the data set: Selectivity index, ratio of IC50 for human IMR90 cells to IC50 for human A549 cells. The data set is classed as functional.
For data set [5], the system named is Staphylococcus aureus. Kind of data set: Antibacterial activity against Staphylococcus aureus MLS-16 MTCC 2940 assessed as inhibition zone after 24 hrs at 30 degC by well diffusion method. The data set is classed as functional. Conditions: MLS-16 MTCC 2940, 24 h. (In general: A growth-free zone around the sample is the usual read-out of agar diffusion tests.)

Data set [6] relates to Bacillus subtilis. Kind of data set: Antibacterial activity against Bacillus subtilis MTCC 121 assessed as inhibition zone after 24 hrs at 30 degC by well diffusion method. The data set is classed as functional. Particulars: MTCC 121, 24 h.
Data set [7] is described as follows: Cytotoxicity against human DU145 cells assessed as reduction in cell viability by MTT assay. The data set is classed as functional, cell-based. Conditions: DU-145.
Data set [8] deals with IMR-90. Kind of data set: Selectivity index, ratio of IC50 for human IMR90 cells to IC50 for human MCF7 cells. The data set is classed as functional.
The nature of data set [9]: Cytotoxicity against human IMR90 cells assessed as reduction in cell viability by MTT assay. Conditions: IMR-90. The data set is classed as cell-based.
In data set [10] the test system is IMR-90. Nature of the data set: Selectivity index, ratio of IC50 for human IMR90 cells to IC50 for human DU145 cells. The data set is classed as functional.
Data set [11] in a line: Cytotoxicity against human SKOV3 cells assessed as reduction in cell viability by MTT assay. The data set is classed as functional, cell-based. Conditions: SK-OV-3.
The test system of data set [12] is Micrococcus luteus. Nature of the data set: Antibacterial activity against Micrococcus luteus MTCC 2470 assessed as inhibition zone after 24 hrs at 30 degC by well diffusion method. The data set is classed as functional. Particulars: MTCC 2470, 24 h.
Data set [13] concerns Escherichia coli. Kind of data set: Antibacterial activity against Escherichia coli MTCC 739 assessed as inhibition zone after 24 hrs at 30 degC by well diffusion method. The data set is classed as functional. Particulars: MTCC 739, 24 h.
Data set [14] deals with MCF7. Nature of the data set: Cytotoxicity against human MCF7 cells assessed as reduction in cell viability by MTT assay. The data set is classed as functional, cell-based.
The test system of data set [15] is Staphylococcus aureus. Nature of the data set: Antibacterial activity against Staphylococcus aureus MTCC 96 […] after 24 hrs at 30 degC by well diffusion method. The data set is classed as functional. Particulars: MTCC 96, 24 h.
Data set [16] relates to Raoultella planticola. Kind of data set: Antibacterial activity against Klebsiella planticola MTCC 530 assessed as inhibition zone after 24 hrs at 30 degC by well diffusion method. The data set is classed as functional. Particulars: MTCC 530, 24 h.
For data set [17], the system named is Candida albicans. Nature of the data set: Antifungal activity against Candida albicans MTCC 3017 […] after 24 hrs at 30 degC by well diffusion method. The data set is classed as functional. Particulars: MTCC 3017, 24 h.
The subject of data set [18] is SK-OV-3. Kind of data set: Selectivity index, ratio of IC50 for human IMR90 cells to IC50 for human SKOV3 cells. The data set is classed as functional.

Take `Cc1c(C)c2c(c(C)c1O)CC[C@@](C)(CCC[C@H](C)CCC[C@H](C)CCCC(C)C)O2` [ALPHA-TOCOPHEROL]: the EC50 in data set [1] was determined as 10.4 mg/L (≈ 24.1 µM).
Regarding `CCCCCCCC(=O)Nc1cc2c(cc1F)c(=O)c(C(=O)OCC)cn2CC`, the IC50 in data set [2] was determined as 9.2 µM; in [7], 10.1 µM; in [9] it was 91.2 µM; in data set [11], 8.1 µM; in data set [14], 7.9 µM. The MIC in data set [3], in data set [5], in data set [6], in [12], in [13] and in data set [15] was above 125 mg/L throughout. Further, the MIC in data set [16] and in data set [17] was above 125 mg/L in each case. The “Ratio IC50” value came to 9.9 in data set [4], 11.5 in [8], 9 in data set [10] and 11.2 in [18]. The 50% effective concentration (EC50) in [1] was determined as 109.8 mg/L (≈ 271 µM).
As to `CCCCCCCCCCCCCCCCCC(=O)Nc1cc2c(cc1F)c(=O)c(C(=O)OCC)cn2CC`, the half-inhibitory concentration (IC50) was 32.6 µM in [2], 37.1 µM in data set [7], 35.2 µM in data set [11] and 28.4 µM in data set [14]. Moreover, the minimal inhibitory concentration (MIC) in data set [3], in data set [5], in data set [6], in data set [12], in data set [13] and in data set [15] was above 125 mg/L in each case. Further, the MIC in data set [16] and in [17] was above 125 mg/L throughout. The 50% effective concentration (EC50) in data set [1] turned out to be 798.8 mg/L (≈ 1470 µM).
On to `COc1cccc2c1C(=O)c1c(O)c3c(c(O)c1C2=O)C[C@@](O)(C(=O)CO)C[C@@H]3O[C@H]1C[C@H](N)[C@H](O)[C@H](C)O1` [DOXORUBICIN], for which the results for the IC50 in data set [7], in data set [9] and in data set [11] were 0.7 µM, 21.3 µM and 0.7 µM, respectively.
In the case of `CCCCCCCC/C=C/CCCCCCCC(=O)Nc1cc2c(cc1F)c(=O)c(C(=O)OCC)cn2CC`, the minimal inhibitory concentration (MIC) in [3], in [5], in data set [6], in data set [12], in data set [13] and in data set [15] was above 125 mg/L throughout. In addition, the MIC in data set [16] and in data set [17] was above 125 mg/L each time. The EC50 in data set [1] was found to be 750.7 mg/L (≈ 1380 µM).

The EC50 is the concentration needed to bring the measured effect to its halfway point. One may read the IC50 as the point on the concentration scale where inhibition reaches its midpoint. The term MIC denotes the least concentration at which growth counts as inhibited.
